In ChEMBL document CHEMBL1137292, “Synthesis and activity of a folate peptide camptothecin prodrug” (Bioorg Med Chem Lett, 2006):
Starred links: 1 amine or outer side, 2 acyl side, 3 side chain; linkers in the order of their positions; H or OH if unused. Residues, ends and D or L forms follow the SMILES beside them. *: point of attachment. S(CH2)2OCO2(CPT-20-yl) = CC[C@@]1(OC(=O)OCCS*)C(=O)OCc2c1cc1n(c2=O)Cc2cc3ccccc3nc2-1; Pteroyl = Nc1nc2ncc(CNc3ccc(C(=O)*)cc3)nc2c(=O)[nH]1; γGlu = O=C(O)[C@H](CCC(=O)[*:2])N[*:1]

Columns and labels:
[1] = molecular target: Folate receptor alpha (Homo sapiens) (UniProt P15328); experiment: Displacement of [3H]folic acid from human folate receptor expressed in KB cells relative to folic acid; type: cell-based
Chain of Folate receptor alpha (Homo sapiens) (P15328 25-234 limits assumed): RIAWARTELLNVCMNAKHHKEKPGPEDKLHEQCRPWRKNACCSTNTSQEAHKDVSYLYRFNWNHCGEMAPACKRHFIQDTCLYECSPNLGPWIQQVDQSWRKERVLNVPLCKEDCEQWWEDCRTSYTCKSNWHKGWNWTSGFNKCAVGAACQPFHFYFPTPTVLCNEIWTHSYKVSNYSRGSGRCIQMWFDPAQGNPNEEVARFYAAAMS

KB = experiment: Antiproliferative activity against human KB cells expressing FR in presence of folic acid after 72 hrs by [3H]thymidine incorporation assay; type: functional, cell-based

- relative binding affinity (RBA) [1]: 0.44
- IC50 (KB): 10 nM
Structure (SMILES): CC[C@@]1(OC(=O)OCCSSC[C@H](NC(=O)[C@H](CC(=O)O)NC(=O)[C@H](CC(=O)O)NC(=O)[C@H](CCCNC(=N)N)NC(=O)[C@H](CC(=O)O)NC(=O)CC[C@H](NC(=O)c2ccc(NCc3cnc4nc(N)[nH]c(=O)c4n3)cc2)C(=O)O)C(=O)O)C(=O)OCc2c1cc1n(c2=O)Cc2cc3ccccc3nc2-1 ({Pteroyl-γGlu}-DRDDC(S(CH2)2OCO2(CPT-20-yl))-OH)
